Test results published in PubChem BioAssay (NCI).
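Step 1: Grow cells in 96-well plates. Step 2: Expose to compound for 48 hours at 5 concentrations. Step 3: Interpolate endpoints linearly; if unreached, use highest concentration. TGI: concentration producing complete growth inhibition.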

How the values were obtained:
Experiment in all cases: NCI anticancer screen, dose series, 48 h
RPMI-8226 leukemia = test system: RPMI-8226 leukemia
A549 NSCLC = test system: A549 NSCLC
CAKI-1 renal = test system: CAKI-1 renal
SNB-19 CNS = test system: SNB-19 CNS
NCI-H226 lung = test system: NCI-H226 lung
SNB-75 CNS = test system: SNB-75 CNS
MDA-N = test system: MDA-N
NCI/ADR-RES ovarian = test system: NCI/ADR-RES ovarian
CCRF-CEM leukemia = test system: CCRF-CEM leukemia
HL-60(TB) leukemia = test system: HL-60(TB) leukemia
M14 melanoma = test system: M14 melanoma
MCF7 breast = test system: MCF7 breast
SW-620 colon = test system: SW-620 colon
A498 renal = test system: A498 renal
NCI-H23 lung = test system: NCI-H23 lung
EKVX NSCLC = test system: EKVX NSCLC
KM12 colon = test system: KM12 colon
MDA-MB-435 = test system: MDA-MB-435
LOX IMVI melanoma = test system: LOX IMVI melanoma
K-562 leukemia = test system: K-562 leukemia
UACC-62 melanoma = test system: UACC-62 melanoma
SF-295 CNS = test system: SF-295 CNS
HCT-116 colon = test system: HCT-116 colon
NCI-H460 lung = test system: NCI-H460 lung
OVCAR-8 ovarian = test system: OVCAR-8 ovarian
SK-OV-3 ovarian = test system: SK-OV-3 ovarian
MDA-MB-231 breast = test system: MDA-MB-231 breast
T-47D breast = test system: T-47D breast
IGROV1 ovarian = test system: IGROV1 ovarian
HT29 colon = test system: HT29 colon
DU-145 prostate = test system: DU-145 prostate
OVCAR-4 ovarian = test system: OVCAR-4 ovarian
U251 CNS = test system: U251 CNS
786-0 renal = test system: 786-0 renal
HCT-15 colon = test system: HCT-15 colon
HOP-62 NSCLC = test system: HOP-62 NSCLC
UACC-257 melanoma = test system: UACC-257 melanoma
UO-31 renal = test system: UO-31 renal
MALME-3M melanoma = test system: MALME-3M melanoma
COLO 205 colon = test system: COLO 205 colon
HOP-92 NSCLC = test system: HOP-92 NSCLC
HS 578T breast = test system: HS 578T breast
OVCAR-3 ovarian = test system: OVCAR-3 ovarian
SK-MEL-28 melanoma = test system: SK-MEL-28 melanoma
MOLT-4 leukemia = test system: MOLT-4 leukemia
RXF 393 renal = test system: RXF 393 renal
SF-268 CNS = test system: SF-268 CNS
SN12C renal = test system: SN12C renal
TK-10 renal = test system: TK-10 renal
SF-539 CNS = test system: SF-539 CNS
SR leukemia = test system: SR leukemia
PC-3 prostate = test system: PC-3 prostate
OVCAR-5 ovarian = test system: OVCAR-5 ovarian
SK-MEL-5 melanoma = test system: SK-MEL-5 melanoma
HCC-2998 colon = test system: HCC-2998 colon
SK-MEL-2 melanoma = test system: SK-MEL-2 melanoma
ACHN renal = test system: ACHN renal
BT-549 breast = test system: BT-549 breast
NCI-H522 lung = test system: NCI-H522 lung

Compound: BrC(=C(c1ccc(OC2CCCCO2)cc1)c1ccc(OC2CCCCO2)cc1)c1ccccc1 (configuration not stated)
- TGI (RPMI-8226 leukemia): > 100 µM
- TGI (A549 NSCLC): > 100 µM
- TGI (CAKI-1 renal): > 100 µM
- TGI (SNB-19 CNS): > 100 µM
- TGI (NCI-H226 lung): > 100 µM
- TGI (SNB-75 CNS): > 100 µM
- TGI (MDA-N): > 100 µM
- TGI (NCI/ADR-RES ovarian): > 100 µM
- TGI (CCRF-CEM leukemia): > 100 µM
- TGI (HL-60(TB) leukemia): > 100 µM
- TGI (M14 melanoma): > 100 µM
- TGI (MCF7 breast): > 100 µM
- TGI (SW-620 colon): > 100 µM
- TGI (A498 renal): > 100 µM
- TGI (NCI-H23 lung): > 100 µM
- TGI (EKVX NSCLC): > 100 µM
- TGI (KM12 colon): > 100 µM
- TGI (MDA-MB-435): > 100 µM
- TGI (LOX IMVI melanoma): > 100 µM
- TGI (K-562 leukemia): > 100 µM
- TGI (UACC-62 melanoma): > 100 µM
- TGI (SF-295 CNS): > 100 µM
- TGI (HCT-116 colon): > 100 µM
- TGI (NCI-H460 lung): > 100 µM
- TGI (OVCAR-8 ovarian): > 100 µM
- TGI (SK-OV-3 ovarian): > 100 µM
- TGI (MDA-MB-231 breast): > 100 µM
- TGI (T-47D breast): > 100 µM
- TGI (IGROV1 ovarian): > 100 µM
- TGI (HT29 colon): > 100 µM
- TGI (DU-145 prostate): > 100 µM
- TGI (OVCAR-4 ovarian): > 100 µM
- TGI (U251 CNS): > 100 µM
- TGI (786-0 renal): > 100 µM
- TGI (HCT-15 colon): > 100 µM
- TGI (HOP-62 NSCLC): > 100 µM
- TGI (UACC-257 melanoma): > 100 µM
- TGI (UO-31 renal): > 100 µM
- TGI (MALME-3M melanoma): > 100 µM
- TGI (COLO 205 colon): > 100 µM
- TGI (HOP-92 NSCLC): > 100 µM
- TGI (HS 578T breast): > 100 µM
- TGI (OVCAR-3 ovarian): > 100 µM
- TGI (SK-MEL-28 melanoma): > 100 µM
- TGI (MOLT-4 leukemia): > 100 µM
- TGI (RXF 393 renal): > 100 µM
- TGI (SF-268 CNS): > 100 µM
- TGI (SN12C renal): > 100 µM
- TGI (TK-10 renal): > 100 µM
- TGI (SF-539 CNS): > 100 µM
- TGI (SR leukemia): > 100 µM
- TGI (PC-3 prostate): > 100 µM

Compound: COc1ccc(-c2nc(SCC(=O)NNC(=S)Nc3ccccc3)[nH]c2-c2ccc(OC)cc2)cc1
- TGI (OVCAR-5 ovarian): 49 µM
- TGI (A549 NSCLC): > 100 µM
- TGI (CAKI-1 renal): > 100 µM
- TGI (SK-MEL-5 melanoma): 28.4 µM
- TGI (SNB-19 CNS): 43.2 µM
- TGI (SNB-75 CNS): > 100 µM
- TGI (MDA-N): 50.3 µM
- TGI (NCI/ADR-RES ovarian): > 100 µM
- TGI (CCRF-CEM leukemia): > 100 µM
- TGI (HL-60(TB) leukemia): 29.9 µM
- TGI (M14 melanoma): 34.6 µM
- TGI (MCF7 breast): 47.5 µM
- TGI (SW-620 colon): 91.2 µM
- TGI (A498 renal): 47.9 µM
- TGI (NCI-H23 lung): 39.3 µM
- TGI (EKVX NSCLC): 75.9 µM
- TGI (KM12 colon): 85.9 µM
- TGI (MDA-MB-435): 46.7 µM
- TGI (LOX IMVI melanoma): 37.9 µM
- TGI (K-562 leukemia): > 100 µM
- TGI (HCC-2998 colon): 29.3 µM
- TGI (UACC-62 melanoma): 30.6 µM
- TGI (SF-295 CNS): 39.8 µM
- TGI (HCT-116 colon): 78 µM
- TGI (NCI-H460 lung): 32.2 µM
- TGI (OVCAR-8 ovarian): > 100 µM
- TGI (SK-OV-3 ovarian): > 100 µM
- TGI (MDA-MB-231 breast): 95.4 µM
- TGI (T-47D breast): 85 µM
- TGI (IGROV1 ovarian): > 100 µM
- TGI (HT29 colon): > 100 µM
- TGI (DU-145 prostate): > 100 µM
- TGI (SK-MEL-2 melanoma): 34.7 µM
- TGI (OVCAR-4 ovarian): > 100 µM
- TGI (U251 CNS): 32 µM
- TGI (786-0 renal): 60.7 µM
- TGI (HCT-15 colon): 52 µM
- TGI (HOP-62 NSCLC): 46.1 µM
- TGI (UACC-257 melanoma): 44.1 µM
- TGI (ACHN renal): 64.2 µM
- TGI (UO-31 renal): > 100 µM
- TGI (MALME-3M melanoma): > 100 µM
- TGI (COLO 205 colon): 30.4 µM
- TGI (HOP-92 NSCLC): 44.9 µM
- TGI (BT-549 breast): 57 µM
- TGI (OVCAR-3 ovarian): 34.5 µM
- TGI (SK-MEL-28 melanoma): 66.8 µM
- TGI (MOLT-4 leukemia): 25.3 µM
- TGI (RXF 393 renal): 43.9 µM
- TGI (SF-268 CNS): 59.8 µM
- TGI (SN12C renal): 50.8 µM
- TGI (TK-10 renal): > 100 µM
- TGI (SF-539 CNS): 30.9 µM
- TGI (NCI-H522 lung): 42.4 µM
- TGI (PC-3 prostate): 73.7 µM
